# Like-named read-outs stand apart in the source and are kept apart here.
# Experiments:
# MAT2A homodimer = target: T1, MAT2A homodimer (Homo sapiens, UniProt P31153); assay: MAT2A biochemical assay (liberated phosphate, PiColorLock Gold); settings: Table 5a; MAT2A biochemical assay; read-out: Enzyme Inhibition
# T1 construct: inferred from the Ni sepharose purification and imidazole elution; made in house; host or cells: SF9 insect cells, recombinant baculovirus (Bac to Bac, pFASTBAC1)
# In short: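 Baculovirus/Sf9-expressed, Ni-purified MAT2A homodimer preincubated with compound 60 min at 25 °C, then reacted 60 min at 25 °C with substrate mix of 500 μM ATP and 400 μM L-methionine, pH 7.0 (mix, not final levels). Phosphate released with SAM measured by PiColorLock Gold against phosphate standard curve.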
# [1] = system: SAM in HCT116 MTAP-deleted cells; assay: Cellular assay of target engagement (SAM), LC-MS/MS; type: cell-based, human; settings: 72 h, read-out: Cell 72 h SAM Inhibition (MTAP −/−)
# Experimental: Measurement of MAT2A activity in cells was made by direct quantitation of the abundance of the product of its enzymatic activity, SAM. Cancer cells were treated with candidate MAT2A inhibitors for a suitable incubation period, and the cells were then lysed using a reagent which quenched any further enzyme activity. Soluble metabolites including SAM were collected and SAM itself was directly measured from the lysate using quantitative LC-MS/MS.
# A typical assay was performed using an HCT116 human colon carcinoma cell line which was genetically engineered to delete the MTAP gene (commercially available from Horizon Discovery). […] Cells were plated in 96-well dishes at appropriate cell density. Following 24 hours, cells were then treated with the candidate MAT2A inhibitor. […] Compound was then transferred to a working stock plate in cell culture media by adding 5 μL of compound in DMSO to 495 μL of cell culture media. This working stock was then added to cells via a further 5-fold dilution, by adding 25 μL of working stock to 100 μL of cells in culture media. Following compound addition, cells were incubated at 37° C./5% CO2 for 72 hrs.
# To quantitate SAM levels following compound treatment, cells were gently washed once in ammonium carbonate buffer (75 mM at pH 7.4), placed on dry ice, and lysed with metabolite extraction buffer (80% cold methanol and 20% water (v/v) with acetic acid at 1M final concentration with 200 ng/mL deuterated d3-SAM as internal control). Following centrifugation at 4° C. at 3,200 rpm for 30 minutes, the supernatant was collected and stored at −80° C. until analysis by Liquid Chromatography with tandem Mass Spectrometry (LC-MS/MS). LC-MS/MS analysis was performed using an API6500 Mass Spectrometer (Sciex, Framingham, Mass., USA) operating in positive ion spray mode and equipped with a Waters UPLC Acquity (Waters, Milford, Mass., USA) BEH Amide column.
# HCT116 MTAP-/- = assay: Inhibition of cellular proliferation (Cell Titer Glo), HCT116 MTAP-/-; type: cell-based, human; settings: 4 days, read-out: 4 Day Relative Growth Inhibition (MTAP −/−)
# Experimental: (§1) Test compound impact on cancer cell growth was assessed by treating cancer cells with compound for 4 days and then measuring proliferation using an ATP-based cell proliferation readout (Cell Titer Glo, Promega Corporation).
# (§2) In a typical assay an isogenic pair of HCT116 human colon carcinoma cell lines which vary only in MTAP deletion status (HCT116 MTAP+/+ and HCT116 MTAP−/−) were plated in 96-well dishes at appropriate cell density. Following 24 hours, cells were then treated with the candidate MAT2A inhibitor. […] Compound was then transferred to a working stock plate in cell culture media by adding 5 μL of compound in DMSO to 495 μL of cell culture media. This working stock was then added to cells via a further 5-fold dilution, by adding 25 μL of working stock to 100 μL of cells in culture media. Following compound addition, cells were incubated at 37° C./5% CO2 for 4 days.
# (§3) The plate was then covered with aluminum foil and shaken for 15 minutes to ensure complete mixing and full cell lysis. […] This luminescence measure was converted to a proliferation index by subtracting from each data point the ATP luminescence signal measured from a bank (no cells) well and dividing by the ATP luminescence signal measured in 0.2% DMSO control well adjusted for signal in blank well.
# HCT116 MTAP+/+ = assay: Inhibition of cellular proliferation (Cell Titer Glo), HCT116 MTAP+/+; type: cell-based; settings: Homo sapiens, HCT-116, 96 h, Table 5a, 4 days, read-out: 4 Day Relative Growth Inhibition (MTAP +/+)
# Experimental: as §1, §2, §3
# [2] = Homo sapiens, HCT-116, Table 5a
# [3] = Homo sapiens, HCT-116, 96 h, Table 5a
# [4] = Table 6, select pairs of compounds
# T1 sequence (P31153 whole entry): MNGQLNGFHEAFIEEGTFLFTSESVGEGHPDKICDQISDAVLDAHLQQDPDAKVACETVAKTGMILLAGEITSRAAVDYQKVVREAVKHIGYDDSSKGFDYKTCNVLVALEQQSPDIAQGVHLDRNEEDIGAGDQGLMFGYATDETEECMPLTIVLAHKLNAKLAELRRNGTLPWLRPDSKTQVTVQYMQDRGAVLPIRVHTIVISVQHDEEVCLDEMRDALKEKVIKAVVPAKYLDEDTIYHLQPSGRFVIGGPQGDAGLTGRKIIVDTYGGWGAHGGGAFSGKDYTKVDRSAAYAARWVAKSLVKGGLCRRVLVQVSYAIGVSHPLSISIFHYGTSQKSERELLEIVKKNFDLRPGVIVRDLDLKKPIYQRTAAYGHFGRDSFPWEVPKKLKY
SMILES,IC50 (MAT2A homodimer),"IC50 [1, 2]",IC50 (HCT116 MTAP-/-; [3]),IC50 (HCT116 MTAP+/+),"IC50 [1, 4]",IC50 (HCT116 MTAP-/-; [4])
"Cn1cc2cc(N3Cc4ccc(NCC(F)(F)F)nc4N(c4ccc(-c5nc[nH]n5)cc4)C3=O)ccc2n1 [Example 114, 1-(4-(1H-1,2,4-triazol-3-yl)phenyl)-3-(2-methyl-2H-indazol-5-yl)-7-((2,2,2-trifluoroethyl)amino)-3,4-dihydropyrido[2,3-d]pyrimidin-2(1H)-one]",< 100 nM,< 100 nM,< 100 nM,> 1000 nM,,
"CCOc1ccc2c(n1)N(c1ccc(OC)nc1)C(=O)N(c1ccc3nn(C)cc3c1)C2 [Example 142, 7-ethoxy-1-(6-methoxypyridin-3-yl)-3-(2-methyl-2H-indazol-5-yl)-3,4-dihydropyrido[2,3-d]pyrimidin-2(1H)-one]",< 100 nM,< 100 nM,100 to 1000 nM,> 1000 nM,,
"COc1ccc(N2Cc3ccc(NCC(F)(F)F)nc3N(c3ccc(OC(F)F)cc3)C2=O)cc1 [Example 406, 1-(4-(difluoromethoxy)phenyl)-3-(4-methoxyphenyl)-7-((2,2,2-trifluoroethyl)amino)-3,4-dihydropyrido[2,3-d]pyrimidin-2(1H)-one]",< 100 nM,100 to 1000 nM,100 to 1000 nM,> 1000 nM,,
"COc1ccc(N2Cc3cnc(NCC(F)(F)F)nc3N(c3ccc(C(F)(F)F)cc3)C2=O)cc1 [Example 250, 3-(4-methoxyphenyl)-7-((2,2,2-trifluoroethyl)amino)-1-(4-(trifluoromethyl)phenyl)-3,4-dihydropyrimido[4,5-d]pyrimidin-2(1H)-one]",100 to 1000 nM,100 to 1000 nM,> 1000 nM,> 1000 nM,,
"[2H]C([2H])([2H])Oc1ccc(N2C(=O)N(c3ccc4nn(C)cc4c3)Cc3ccc(OCCF)nc32)cc1 [Example 163, 7-(2-fluoroethoxy)-1-(4-methoxy-d3-phenyl)-3-(2-methyl-2H-indazol-5-yl)-3,4-dihydropyrido[2,3-d]pyrimidin-2(1H)-one]",< 100 nM,100 to 1000 nM,100 to 1000 nM,> 1000 nM,,
CCOc1ccc2c(n1)N(c1ccc(OC(F)F)nc1)C(=O)N(c1ccc3nn(C)cc3c1)C2 [Example 275],< 100 nM,100 to 1000 nM,100 to 1000 nM,100 to 1000 nM,,
Cn1cc2cc(N3Cc4cnc(NCC(F)(F)F)cc4N(c4ccc(OC(F)F)cc4)C3=O)ccc2n1 [Example 268],< 100 nM,100 to 1000 nM,> 1000 nM,> 1000 nM,,
"[2H]C([2H])([2H])Oc1ccc(N2C(=O)N(c3ccc4nn(C)cc4c3)Cc3ccc(OC(C)C(F)F)nc32)cc1 (stereo not shown) [Example 168, 7-((1,1-difluoropropan-2-yl)oxy)-1-(4-methoxy-d3-phenyl)-3-(2-methyl-2H-indazol-5-yl)-3,4-dihydropyrido[2,3-d]pyrimidin-2(1H)-one]",< 100 nM,< 100 nM,< 100 nM,> 1000 nM,,
"Cn1cc2cc(N3Cc4cnc(NCC(F)(F)F)nc4N(c4ccc(OC(F)F)cc4)C3=O)ccc2n1 [Example 216, 1-(4-(difluoromethoxy)phenyl)-3-(2-methyl-2H-indazol-5-yl)-7-((2,2,2-trifluoroethyl)amino)-3,4-dihydropyrimido[4,5-d]pyrimidin-2(1H)-one]",< 100 nM,< 100 nM,< 100 nM,> 1000 nM,< 100 nM,< 100 nM
"COC1CC=C(N2C(=O)N(c3ccc4nn(C)cc4c3)Cc3ccc(OCC(F)F)nc32)CC1 (stereo not shown) [Example 178, 7-(2,2-difluoroethoxy)-1-(4-methoxycyclohex-1-en-1-yl)-3-(2-methyl-2H-indazol-5-yl)-3,4-dihydropyrido[2,3-d]pyrimidin-2(1H)-one]",< 100 nM,< 100 nM,< 100 nM,100 to 1000 nM,,
"Cn1cc2cc(N3Cc4cc(F)c(OCC(F)F)cc4N(c4ccc(OC(F)F)cc4)C3=O)ccc2n1 [Example 285, 7-(2,2-difluoroethoxy)-1-(4-(difluoromethoxy)phenyl)-6-fluoro-3-(2-methyl-2H-indazol-5-yl)-3,4-dihydroquinazolin-2(1H)-one]",< 100 nM,100 to 1000 nM,100 to 1000 nM,> 1000 nM,,
"[2H]C([2H])([2H])Oc1ccc(N2C(=O)N(c3ccc4nn(C)cc4c3)Cc3ccc(OCC)nc32)cc1 [Example 137, 7-ethoxy-1-(4-(methoxy-d3)phenyl)-3-(2-methyl-2H-indazol-5-yl)-3,4-dihydropyrido[2,3-d]pyrimidin-2(1H)-one]",< 100 nM,< 100 nM,< 100 nM,> 1000 nM,,
Cc1nc2ccc(N3Cc4cnc(NCC(F)(F)F)nc4N(c4ccc(OC(F)F)cc4)C3=O)cc2n1C [Example 424],< 100 nM,< 100 nM,100 to 1000 nM,> 1000 nM,,
"COc1ccc(N2Cc3cnc(NCC(F)(F)F)nc3N(c3ccc(-c4nc[nH]n4)cc3)C2=O)cc1 [Example 193, 1-(4-(1H-1,2,4-triazol-3-yl)phenyl)-3-(4-methoxyphenyl)-7-((2,2,2-trifluoroethyl)amino)-3,4-dihydropyrimido[4,5-d]pyrimidin-2(1H)-one]",< 100 nM,< 100 nM,100 to 1000 nM,> 1000 nM,,
Cn1cc2cc(N3Cc4cc(F)c(OCC(F)F)nc4N(c4ccc(OC(F)F)cc4)C3=O)ccc2n1 [Example 184],< 100 nM,100 to 1000 nM,100 to 1000 nM,> 1000 nM,,
"Cn1cc2cc(N3Cc4ccc(OCC(F)F)nc4N(c4ccc(Br)cc4)C3=O)ccc2n1 [Example 133, 1-(4-bromophenyl)-7-(2,2-difluoroethoxy)-3-(2-methyl-2H-indazol-5-yl)-3,4-dihydropyrido[2,3-d]pyrimidin-2(1H)-one]",< 100 nM,< 100 nM,< 100 nM,> 1000 nM,,
"Cn1cc2cc(N3Cc4ccc(OCC(F)F)nc4N(c4ccc5sncc5c4)C3=O)ccc2n1 [Example 176, 1-(benzo[d]isothiazol-5-yl)-7-(2,2-difluoroethoxy)-3-(2-methyl-2H-indazol-5-yl)-3,4-dihydropyrido[2,3-d]pyrimidin-2(1H)-one]",< 100 nM,100 to 1000 nM,100 to 1000 nM,> 1000 nM,,
"CCOc1ccc2c(n1)N(c1ccc(-c3nnc[nH]3)cc1)C(=O)N(c1ccc3nn(C)cc3c1)C2 [Example 153, 1-(4-(4H-1,2,4-triazol-3-yl)phenyl)-7-ethoxy-3-(2-methyl-2H-indazol-5-yl)-3,4-dihydropyrido[2,3-d]pyrimidin-2(1H)-one]",< 100 nM,< 100 nM,< 100 nM,> 1000 nM,,
Cn1cc2cc(N3Cc4ccc(OCC(F)(F)F)nc4N(c4ccc(OC(F)F)cc4)C3=O)ccc2n1 [Example 270],< 100 nM,< 100 nM,100 to 1000 nM,> 1000 nM,,
"Cn1cc2cc(N3Cc4ncc(NCC(F)(F)F)nc4N(c4ccc(OC(F)F)cc4)C3=O)ccc2n1 [Example 414, 1-(4-(difluoromethoxy)phenyl)-3-(2-methyl-2H-indazol-5-yl)-7-((2,2,2-trifluoroethyl)amino)-3,4-dihydropteridin-2(1H)-one]",< 100 nM,< 100 nM,< 100 nM,> 1000 nM,,
